Experimental data published in PubChem BioAssay AID588341 (The Scripps Research Institute Molecular Screening Center, 2011).
The source made the active and inactive calls. The rule behind the calls is not given here.

Molecular target: Beta-lactamase (reporter enzyme, TEM-1 type bla) (UniProt Q932Y6)
Assay: BLA reporter interference, concentration series – BLA reporter cells, FRET fluorescence, artefact control for TLR9-MyD88 binding inhibitor project, dose response (AID 588341)
Conditions: BLA reporter cell line, FRET fluorescence inhibition

Beta-lactamase (reporter enzyme, TEM-1 type bla), sequence (Q932Y6 1-286): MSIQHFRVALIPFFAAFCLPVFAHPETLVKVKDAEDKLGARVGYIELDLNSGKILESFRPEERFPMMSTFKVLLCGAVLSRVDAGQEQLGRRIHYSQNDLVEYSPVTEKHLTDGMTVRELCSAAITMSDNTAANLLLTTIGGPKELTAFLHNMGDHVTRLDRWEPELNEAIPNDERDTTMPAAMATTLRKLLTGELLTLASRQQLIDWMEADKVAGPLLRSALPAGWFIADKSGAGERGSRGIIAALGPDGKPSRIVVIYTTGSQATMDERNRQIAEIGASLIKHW

For `COc1cc(/C=C/C(=O)/C=C(O)/C=C/c2ccc(O)c(OC)c2)ccc1O`, the IC50 was “inactive”.
